Patent US20130065959A1, “SANITIZING MEAT WITH PERACID AND 2-HYDROXY ORGANIC ACID COMPOSITIONS” (Fresh Express Incorporated, priority 2009, published 2013)

Tests used:
Type in all cases: cell-based
[1] = system: Pseudomonas aeruginosa (ATCC 9027); test: Attached cells on non-food surface coupons (Example 6); details: 90 sec
Method: Inoculum preparation: Pseudomonas aeruginosa (ATCC 9027) freeze dried culture was rehydrated in 10 mL of sterilized nutrient broth (NB) and mixed homogeneously. 0.1 mL of the stock solution was transferred to 10 mL of NB and incubated at 37C for 24 h. Enrichment was streaked to confirm purity. 10 mL of the enriched stock was transferred to 1,000 mL of NB and incubated at 37C for 24 h resulting in ˜10^8 cfu/mL stationary phase culture stock. The stock was cooled at 4C for 1 h. Microbial population of the stationary phase stock culture was enumerated by means of serial dilution with 9-mL Butterfield phosphate buffer tubes and spread plating on Nutrient Agar […] pre-poured agar plates.
Non-food surface inoculation: The 1000 mL˜10^8 cfu/mL stock culture solution was homogeneously mixed by shaking and swirling the Erlenmeyer flask. The 1000 mL culture was separated into 20 centrifuge tubes (50 mL each) and centrifuged at 10,000 rpm and 4C for 15 min. The stock culture pellet was re-suspended with 50 mL of NB. All the re-suspended cultures from the 20 centrifuge tubes were combined to form 1,000 mL˜10^8 cfu/mL inoculating stock culture. 15 mL of the P. aeruginosa inoculating stock together with a non-food surface coupon (2.5 cm×5 cm) were placed in a sterilized 50mL-centrifuge tube and incubated for 24 h at 37C. After 24 hr, the coupon was transferred to a sterile Petri dish and placed in an oven to dry for 1 hour at 35C. The coupons were cut from stainless steel sheet, wood, glass slide, and plastic sheet.
Treatment of inoculated non-food surfaces: 1 mL of test solution was dispensed onto a 2.5cm×2.5 cm marked area of each inoculated coupon for 60 s. A pre-wet sterilized cotton swab was dipped in 10 mL Butterfield phosphate buffer with sodium thiosulfate and swabbed the marked area on the coupon after 60 s exposure. The swabbed was then immediately placed into the 10 mL Butterfield phosphate buffer with sodium thiosulfate and mixed. One mL was immediately transferred from the aforementioned tube to a 9 mL Butterfield phosphate buffer. The total treatment time including the exposure time, the swabbing time, and the transfer time was 90 s. Each solution treatment was performed in duplications. The reduction for each solution treatment was compared to that of the city water treatment.

Listeria innocua = test: Attached cells challenge test on produce leaves (Example 1)
[2] = system: Lactobacillus plantarum 14917; test: Suspended Cells Challenge Test, 20 s residence time, no surfactant (Example 2)
Method: (§1) Synergism with respect to efficacy in a Suspended Cells Challenge Test at 20 s residence time with no surfactant.
(§2) The experimental treatment groups were tap water, chlorinated water, a FE sanitizer wash water (FE, FE sanitizer, a solution of peroxyacetic acid and lactic acid, as further specified in a given experiment).
(§3) The experimental protocol was as follows: • 1. Transfer 1.00 mL of a ˜10^8 cfu/g Lactobacillus plantarum (ATCC 14917) stock culture into a test tube containing 9.00 mL of treatment test solution • 2. Vortex the mixture for 15 s • 3. Stop the reaction by transferring 1 mL of the treated samples to 9 mL of Butterfield Phosphate Buffer • 4. Enumerate viable residual cells through serial dilutions and spread plating with 1-mL transfers • 5. […] Repeat Steps 1 to 5 two more times • 7. Repeat Steps 1 to 6 with flume water • 8. Repeat Steps 1 to 6 with chlorinated water • 9. Repeat Steps 1 to 8 with various levels of FE • 10. Repeat Steps 1 to 8 with various levels of lactic acid • 11. Repeat Steps 1 to 8 with various levels of peroxyacetic acid • 12. Repeat Steps 1 to 11 with Listeria innocua (ATCC33090)
(§4) • 1. Log […] is a measure of the percent of microorganisms that are inactivated during the disinfection process and is defined as Log Inactivation=Log10 (No/NT) where No is the initial influent concentration of viable microorganisms; NT is the concentration of surviving microorganisms. As M cfu/g=microbial population of stock culture; W cfu/g=microbial population in solution of “Water Treatment” and X cfu/g=microbial population in solution of “X Treatment,” the Log reduction caused by “Treatment X”=Log (w/x)

[3] = system: Listeria innocua ATCC 33090; test: as above
Method: as §1, §2, §3, §4

[4] = Peroxyacetic acid 0 ppm, Lactic Acid 2000 ppm
[5] = Peroxyacetic acid 0 ppm, Lactic Acid 2500 ppm
[6] = Peroxyacetic acid 0 ppm, Lactic Acid 3000 ppm
[7] = Peroxyacetic acid 70 ppm, Lactic Acid 0 ppm
[8] = Peroxyacetic acid 75 ppm, Lactic Acid 0 ppm
[9] = Peroxyacetic acid 80 ppm, Lactic Acid 0 ppm

Structure (SMILES): CC(O)C(=O)O (stereo not shown) [Lactic Acid, lactic acid]
- Log reductions ([1]; Glass coupon, PA 0 ppm, LA 1,250 ppm): 0.4
- Log reductions ([1]; Glass coupon, PA 0 ppm, LA 2,500 ppm): 1.7
- Log reductions ([1]; Plastic coupon, PA 0 ppm, LA 2,500 ppm): 0.6
- Log reductions ([1]; Plastic coupon, PA 0 ppm, LA 5,000 ppm): 1.2
- Log reductions ([1]; Stainless steel coupon, PA 0 ppm, LA 1,250 ppm): 1.6
- Log reductions ([1]; Stainless steel coupon, PA 0 ppm, LA 2,500 ppm): 1.9
- Log reductions ([1]; Wood coupon, PA 0 ppm, LA 2,500 ppm): 1.4
- Log reductions ([1]; Wood coupon, PA 0 ppm, LA 7,500 ppm): 3.6
- Log reduction, attached cells (Listeria innocua; Romaine, PAA 0 ppm, LA 0.6%): 1.1
- Log reduction, attached cells (Listeria innocua; Romaine, PAA 0 ppm, LA 0.9%): 1.4
- Log reduction, attached cells (Listeria innocua; Romaine, PAA 0 ppm, LA 1.2%): 1.5
- Log reduction, attached cells (Listeria innocua; Spinach, PAA 0 ppm, LA 0.6%): 0.1
- Log reduction, attached cells (Listeria innocua; Spinach, PAA 0 ppm, LA 0.9%): 0.2
- Log reduction, attached cells (Listeria innocua; Spinach, PAA 0 ppm, LA 1.2%): 0.2
- log reduction of suspended cells [2, 4]: 0.00 log10
- log reduction of suspended cells [2, 5]: 0.02 log10
- log reduction of suspended cells [2, 6]: 0.01 log10
- log reduction of suspended cells [3, 4]: 0.08 log10
- log reduction of suspended cells [3, 5]: 0.19 log10
- log reduction of suspended cells [3, 6]: 0.05 log10

Structure (SMILES): CC(=O)OO [Peroxyacetic acid, peroxyacetic acid]
- Log reductions ([1]; Glass coupon, PA 60 ppm, LA 0 ppm): 0.2
- Log reductions ([1]; Glass coupon, PA 80 ppm, LA 0 ppm): 0.0
- Log reductions ([1]; Plastic coupon, PA 60 ppm, LA 0 ppm): 1.2
- Log reductions ([1]; Plastic coupon, PA 80 ppm, LA 0 ppm): 0.9
- Log reductions ([1]; Stainless steel coupon, PA 60 ppm, LA 0 ppm): 1.5
- Log reductions ([1]; Stainless steel coupon, PA 100 ppm, LA 0 ppm): 1.4
- Log reductions ([1]; Wood coupon, PA 100 ppm, LA 0 ppm): 1.0
- Log reductions ([1]; Wood coupon, PA 140 ppm, LA 0 ppm): 0.8
- Log reduction, attached cells (Listeria innocua; Romaine, PAA 60 ppm, LA 0.0%): 0.6
- Log reduction, attached cells (Listeria innocua; Romaine, PAA 70 ppm, LA 0.0%): 1.0
- Log reduction, attached cells (Listeria innocua; Romaine, PAA 80 ppm, LA 0.0%): 1.7
- Log reduction, attached cells (Listeria innocua; Spinach, PAA 60 ppm, LA 0.0%): 0.3
- Log reduction, attached cells (Listeria innocua; Spinach, PAA 70 ppm, LA 0.0%): 0.5
- Log reduction, attached cells (Listeria innocua; Spinach, PAA 80 ppm, LA 0.0%): 1.2
- log reduction of suspended cells [2, 7]: 4.52 log10
- log reduction of suspended cells [2, 8]: 5.59 log10
- log reduction of suspended cells [2, 9]: 5.59 log10
- log reduction of suspended cells [3, 7]: 1.40 log10
- log reduction of suspended cells [3, 8]: 1.70 log10
- log reduction of suspended cells [3, 9]: 1.80 log10
